{"source": "patent US6500849B1", "about": "“1-alkyl-, 1-alkenyl-, and 1-alkynylaryl-2-amino 1,3-propanediols and related compounds” (Aventis Pharmaceuticals Inc., priority 1990, dated 2002)", "key": {"[1]": {"test_system": "female Swiss Webster mice", "assay": "TPA-induced ear edema assay", "type": "in vivo", "conditions": "10 μg/ear topical, after about 5 hours", "experimental": "In the TPA-induced ear edema assay, TPA (12-O-tetradecanoylphorbol-13-acetate) was dissolved in 30/70 propylene glycol/ethanol and was applied to the right ear of groups of 6 female Swiss Webster mice, which were housed together in a cage under standard conditions for 1 week prior to use with food and water ad lib, at a volume of 20 μl so that a total of 10 μg of TPA is delivered to the inner and outer surfaces of the ear. The test compound was dissolved in the vehicle and was applied to the right ear (the inner and outer surface) at a volume of 20 μl so that a total of 10 μg of the compound was delivered to the ear. After about 5 hours, the animals were sacrificed, a 4 mm diameter plug was taken from each ear and weighed. The difference between the right and left ear plug weights for each animal was determined. The antiinflammatory activity of the test compound is expressed as the mean percent change in the ear plug weight of the treated animals compared to the mean percent change in the plug weight of the control animals."}, "[2]": {"test_system": "female Swiss Webster mice", "assay": "Arachidonic acid-induced ear edema assay", "type": "in vivo", "conditions": "1 mg/ear topical, arachidonic acid 4 mg/ear", "experimental": "In the arachidonic acid-induced ear edema assay, the test compound was dissolved in 30/70 propylene glycol/ethanol and was applied to both ears of groups of 6 female Swiss Webster mice, which were housed together in a cage under standard conditions for 1 week prior to use with food and water ad lib, at a volume of 20 μl so that a total of 1.0 mg of test compound was delivered to each ear over the inner and outer surfaces. The same volume (20 μl) of vehicle was applied to each ear of a control group of mice. After 30 minutes, arachidonic acid was applied to the right ear of each mouse of each group in the amount of 4 mg/ear. Vehicle was applied to the left ear of each mouse of each group at a volume of 20 μl/ear. After an additional hour, the mice were sacrificed and a 4 mm plug was taken from each ear and weighed. The difference between the right and left ear plugs was determined for each animal. The antiinflammatory activity of the test compound is expressed as the mean percent change in the ear plug weight of the treated animals relative to the mean percent change in weights of control animals' ear. Antiinflammatory activity of representative compounds of the present invention as determined in this assay are presented below in Table 3."}, "[3]": {"molecular_target": "Protein kinase C", "assay": "Protein kinase C assay (32P incorporation into Type III histone)", "type": "biochemical, rat", "conditions": "rat brain protein kinase C; phosphatidylserine/diacylglycerol stimulated; read-out: Protein Kinase Inhibitory Activity IC50", "experimental": "(see U. Kikkawa, et al., Biochemical and Biophysical Research Communications, 135, 636 (1986) and R. M. Bell, et al. “Methods in Enzymology, Hormone Action,” Part J, P.M. Conn, Ed., Academic Press, Inc., New York, N.Y. 1986, page 353). Protein kinase C enzyme extract was prepared from the brain of male Wistar rats weighing 180 to 200 g and purified by the method of U. Kikkawa, et al., ibid. 636. The purified extract was stored at −80° C., and aliquots were used in the protein kinase C assay performed by a modification of the method of R. M. Bell, et al., ibid. al 354. To perform the assay, duplicate aliquots of duplicate samples are employed. Basal or unstimulated protein kinase C, phosphatidylserine/diacylglycerol stimulated protein kinase C, and test samples are run in each assay. […] The assay tubes were allowed to warm to 25° C. and an 8 μl mixture of adenosine 5′-triphosphate (100 μM) and ^32P-adenosine triphosphate (1 to 2×10^5 counts per minute) was added to each tube for a final volume of 80 μl per tube. After 2 min, the reaction (the incorporation of phosphorous into Type III histone) was terminated by spotting the assay mixture on phosphocellulose paper. The spots are cut out of the paper and the radioactivity (counts per min) of each spot was determined in a scintillation counter."}, "[4]": {"test_system": "Fusobact. varium", "assay": "Anerobic antibacterial assay (agar dilution, Wilkins-Chalgren agar)", "type": "cell-based", "conditions": "anaerobic, 48 hours at 37° C."}, "[5]": {"test_system": "Propionibact. acnes", "assay": "Anerobic antibacterial assay (agar dilution, Wilkins-Chalgren agar)", "type": "cell-based", "conditions": "anaerobic, 48 hours at 37° C."}, "[6]": {"test_system": "Strept. pyogenes", "assay": "Aerobic antibacterial assay (agar dilution, Mueller-Hinton agar)", "conditions": "Strept. pyogenes 77 A; aerobic; 24 hours at 37° C."}, "[7]": {"test_system": "Klebsiella spp.", "assay": "Aerobic antibacterial assay (agar dilution, Mueller-Hinton agar)", "conditions": "Klebsiella spp. 1522E; aerobic; 24 hours at 37° C."}, "[8]": {"test_system": "E. cloacae", "assay": "Aerobic antibacterial assay (agar dilution, Mueller-Hinton agar)", "conditions": "E. cloacae 1321E; aerobic; 24 hours at 37° C."}, "[9]": {"test_system": "Bact. fragilis", "assay": "Anerobic antibacterial assay (agar dilution, Wilkins-Chalgren agar)", "type": "cell-based", "conditions": "anaerobic, 48 hours at 37° C."}, "[10]": {"test_system": "Bact. ovatus", "assay": "Anerobic antibacterial assay (agar dilution, Wilkins-Chalgren agar)", "type": "cell-based", "conditions": "Bact. ovatus 103; anaerobic; 48 hours at 37° C."}, "[11]": {"test_system": "Bact. vulgatus", "assay": "Anerobic antibacterial assay (agar dilution, Wilkins-Chalgren agar)", "type": "cell-based", "conditions": "Bact. vulgatus 1446; anaerobic; 48 hours at 37° C."}, "[12]": {"test_system": "Bact. thetaiotaom.", "assay": "Anerobic antibacterial assay (agar dilution, Wilkins-Chalgren agar)", "type": "cell-based", "conditions": "anaerobic, 48 hours at 37° C."}, "[13]": {"test_system": "Bact. distasonis", "assay": "Anerobic antibacterial assay (agar dilution, Wilkins-Chalgren agar)", "type": "cell-based", "conditions": "Bact. distasonis 1366; anaerobic; 48 hours at 37° C."}, "[14]": {"test_system": "Spaeroph. freundii", "assay": "Anerobic antibacterial assay (agar dilution, Wilkins-Chalgren agar)", "type": "cell-based", "conditions": "Spaeroph. freundii 1369; anaerobic; 48 hours at 37° C."}, "[15]": {"test_system": "Peptostr. anaerobius", "assay": "Anerobic antibacterial assay (agar dilution, Wilkins-Chalgren agar)", "type": "cell-based", "conditions": "Peptostr. anaerobius 932; anaerobic; 48 hours at 37° C."}, "[16]": {"test_system": "Clost. tetani", "assay": "Anerobic antibacterial assay (agar dilution, Wilkins-Chalgren agar)", "type": "cell-based", "conditions": "Clost. tetani 19406; anaerobic; 48 hours at 37° C."}, "[17]": {"test_system": "Clost. perfringens", "assay": "microbe, parasite or virus in culture", "type": "cell-based", "conditions": "Clost. perfringens 194; anaerobic; 48 hours at 37° C."}, "[18]": {"test_system": "Aspergillus Niger", "assay": "Antifungal assay (microtitration technique)", "type": "cell-based", "conditions": "Aspergillus Niger strain 500/284; 5 days at 30° C.", "experimental": "(§1) The microtiter plate is prepared as follows: The wells are each filled (2 rows/strain) with 50 μl neopeptone-dextrose broth (12-channel pipette). In addition, one row/strain is coated with 50 μl yeast-nitrogen base/well for yeasts and moulds. […] All wells are then inoculated with 150 μl standardized organism suspension (yeasts: 1×10^3 organisms/ml suspension; cutaneous fungi and moulds: 1.6×10^5 organisms/ml suspension); the total volume is 200 μl per well. There is also a growth control (inoculated, not medicated), a solvent control (inoculated, not medicated, containing solvent as in medicated rows) and a negative control (not inoculated, not medicated). Incubation for 5 days at 30° C. is followed by photometric evaluation. The obtained measurements are checked visually (macroscopically and microscopically) and corrected where necessary. Criteria for Evaluation of the Antimycotic Effect a. Photometric measurements (matrix method) b. Growth, macroscopic evaluation c. Growth, microscopic evaluation (inversion light microscope, magn. 64×)."}, "[19]": {"test_system": "Candida Albicans", "assay": "Antifungal assay (microtitration technique)", "type": "cell-based", "conditions": "Candida Albicans strain 200/175; 5 days at 30° C.", "experimental": "as §1"}, "[20]": {"test_system": "Microsporum Canis", "assay": "Antifungal assay (microtitration technique)", "type": "cell-based", "conditions": "Microsporum Canis strain 150/353; 5 days at 30° C.", "experimental": "as §1"}, "[21]": {"test_system": "Trichophyton Mentagrophytes", "assay": "Antifungal assay (microtitration technique)", "type": "cell-based", "conditions": "Trichophyton Mentagrophytes strain 100/25; 5 days at 30° C.", "experimental": "as §1"}, "[22]": {"test_system": "Trichophyton Rubrum", "assay": "Antifungal assay (microtitration technique)", "type": "cell-based", "conditions": "Trichophyton Rubrum strain 101/85; 5 days at 30° C.", "experimental": "as §1"}, "[23]": {"test_system": "Trichophyton Vaginalis", "assay": "Antifungal assay (microtitration technique)", "type": "cell-based", "conditions": "Trichophyton Vaginalis strain 111/216; 5 days at 30° C.", "experimental": "as §1"}}}
{"smiles": "CCCCCCCCCCc1cccc(C(O)C(N)CO)n1", "note": "(stereo not drawn) [erythro-2-amino-1-(6-decyl-2-pyridinyl)-1,3-dihydroxypropane]", "values": [{"measurement": "Antiinflammatory Activity Percent Decrease in Ear Plug Weight at 10 μg/ear", "setting": "[1]", "value": 66, "unit": "%"}, {"measurement": "Antiinflammatory Activity Percent Decrease in Ear Plug Weight at 1 mg/ear", "setting": "[2]", "value": 32, "unit": "%"}, {"measurement": "IC50", "setting": "[3]", "value": 48, "unit": "µM"}, {"measurement": "Antibacterial activity (MIC, mg/l)", "setting": "[4]; Fusobact. varium 3085", "value": 12.50, "unit": "mg/L"}, {"measurement": "Antibacterial activity (MIC, mg/l)", "setting": "[5]; Propionibact. acnes 6922", "value": 12.50, "unit": "mg/L"}, {"measurement": "Antibacterial activity (MIC, mg/l)", "setting": "[6]", "value": 6.25, "unit": "mg/L"}, {"measurement": "Antibacterial activity (MIC, mg/l)", "setting": "[7]", "value": 12.50, "unit": "mg/L"}, {"measurement": "Antibacterial activity (MIC, mg/l)", "setting": "[8]", "value": 12.50, "unit": "mg/L"}]}
{"smiles": "CCCCCCCCCCC#Cc1cccc([C@@H](O)[C@H](CO)NC(C)=O)n1", "note": "[erythro-N-{1-[6-(1-Dodecynyl)-2-pyridinyl]-1,3-dihydroxy-2-propanyl}acetamide]", "values": [{"measurement": "Antiinflammatory Activity Percent Decrease in Ear Plug Weight at 10 μg/ear", "setting": "[1]", "value": 59, "unit": "%"}, {"measurement": "Antibacterial activity (MIC, mg/l)", "setting": "[9]; Bact. fragilis 312", "value": 3.13, "unit": "mg/L"}, {"measurement": "Antibacterial activity (MIC, mg/l)", "setting": "[9]; Bact. fragilis 960", "value": 3.13, "unit": "mg/L"}, {"measurement": "Antibacterial activity (MIC, mg/l)", "setting": "[9]; Bact. fragilis 1313", "value": 6.25, "unit": "mg/L"}, {"measurement": "Antibacterial activity (MIC, mg/l)", "setting": "[9]; Bact. fragilis 17390", "value": 6.25, "unit": "mg/L"}, {"measurement": "Antibacterial activity (MIC, mg/l)", "setting": "[9]; Bact. fragilis 18125", "value": 3.13, "unit": "mg/L"}, {"measurement": "Antibacterial activity (MIC, mg/l)", "setting": "[9]; Bact. fragilis 19016", "value": 6.25, "unit": "mg/L"}, {"measurement": "Antibacterial activity (MIC, mg/l)", "setting": "[10]", "value": 3.13, "unit": "mg/L"}, {"measurement": "Antibacterial activity (MIC, mg/l)", "setting": "[11]", "value": 3.13, "unit": "mg/L"}, {"measurement": "Antibacterial activity (MIC, mg/l)", "setting": "[12]; Bact. thetaiotaom. 123", "value": 3.13, "unit": "mg/L"}, {"measurement": "Antibacterial activity (MIC, mg/l)", "setting": "[12]; Bact. thetaiotaom. 1428", "value": 6.25, "unit": "mg/L"}, {"measurement": "Antibacterial activity (MIC, mg/l)", "setting": "[12]; Bact. thetaiotaom. 1445", "value": 6.25, "unit": "mg/L"}, {"measurement": "Antibacterial activity (MIC, mg/l)", "setting": "[13]", "value": 6.25, "unit": "mg/L"}, {"measurement": "Antibacterial activity (MIC, mg/l)", "setting": "[4]; Fusobact. varium 3085", "value": 6.25, "unit": "mg/L"}, {"measurement": "Antibacterial activity (MIC, mg/l)", "setting": "[4]; Fusobact. varium 5262", "value": 6.25, "unit": "mg/L"}, {"measurement": "Antibacterial activity (MIC, mg/l)", "setting": "[14]", "value": 3.13, "unit": "mg/L"}, {"measurement": "Antibacterial activity (MIC, mg/l)", "setting": "[15]", "value": 6.25, "unit": "mg/L"}, {"measurement": "Antibacterial activity (MIC, mg/l)", "setting": "[5]; Propionibact. acnes 6919", "value": 6.25, "unit": "mg/L"}, {"measurement": "Antibacterial activity (MIC, mg/l)", "setting": "[5]; Propionibact. acnes 6922", "value": 6.25, "unit": "mg/L"}, {"measurement": "Antibacterial activity (MIC, mg/l)", "setting": "[16]", "value": 12.50, "unit": "mg/L"}, {"measurement": "Antibacterial activity (MIC, mg/l)", "setting": "[17]", "value": 12.00, "unit": "mg/L"}, {"measurement": "Antifungal Activity MIC", "setting": "[18]", "value": 125.000, "unit": "µg/mL"}, {"measurement": "Antifungal Activity MIC", "setting": "[19]", "value": 125.000, "unit": "µg/mL"}, {"measurement": "Antifungal Activity MIC", "setting": "[20]", "value": 0.970, "unit": "µg/mL"}, {"measurement": "Antifungal Activity MIC", "setting": "[21]", "value": 7.810, "unit": "µg/mL"}, {"measurement": "Antifungal Activity MIC", "setting": "[22]", "value": 31.250, "unit": "µg/mL"}, {"measurement": "Antifungal Activity MIC", "setting": "[23]", "value": 15.625, "unit": "µg/mL"}]}
